Reference: paper PMC12998938, “Neutrophil store-operated Ca^2+ entry: A correctable biomarker of cystic fibrosis lung disease progression” (Journal of cystic fibrosis : official journal of the …, 2025)

Columns and labels:
[1] = system: Orai2; test: SOCE in triple knockout HEK293T cells transfected with Orai2; type: cell-based
Description: (§1) We hypothesized that inhibiting SOCE in CF neutrophils may reduce the secretion of neutrophil elastase and other proteins associated with CF lung disease. To validate ELD607’s specificity for Orai1 over Orai2 and Orai3, we first evaluated ELD607 function in HEK293T cells that had Orai1, Orai2 and Orai3 stably knocked out. […] Next we evaluated ELD607’s ability to inhibit SOCE in non-CF and CF neutrophils.
(§2) Supplemental figure 3. […] Dose responses of thapsigargin-induced changes in cytoplasmic Ca^2+ concentrations. These studies were performed in HEK293T where Orai1, Orai2 and Orai3 had been stably knocked down (triple knockout cells, TKO) or in TKO cells that were transiently transfected with Orai1, Orai2 or Orai3 as indicated. All data are from 7-9 replicates per data point from 3 separate experiments.

[2] = system: Orai3; test: SOCE in triple knockout HEK293T cells transfected with Orai3; type: cell-based
Description: as §1, §2

[3] = system: non-CF neutrophils; test: Neutrophil degranulation multiplex assay, non-CF neutrophils; type: cell-based, human; conditions: 3 h, 1 μM thapsigargin 30 min, vs vehicle, paired t-test
Experimental: Neutrophils were immediately isolated by negative selection from deidentified blood samples using an EasySep human neutrophil isolation kit (Stem Cell Technologies) as described. Cytosolic Ca^2+ was measured using Fluo-4 as described. Protein lysate from isolated blood neutrophils was characterized by liquid chromatography with tandem mass spectrometry (LC-MS/MS) as described. Degranulation products in media were quantified by Luminex assay using a custom Bio-Plex human kit (BioRad) per the manufacturer’s protocol […]. Detailed methods for all experiments and measurements are provided in an online data supplement.
Multiple neutrophil functions, including neutrophil degranulation, are Ca^2+ dependent. Neutrophil degranulation results in an increase in several proteases in the lung, including neutrophil elastase, a key driver of CF lung damage. Accordingly, we investigated the impact of ELD607 on neutrophil degranulation as a marker of Ca^2+-dependent neutrophilic function. We used a multiplex assay to quantify key granule proteins released into media after a 3 h pretreatment with 10 μM ELD607 or vehicle control followed by a 30 min stimulation with 1 μM thapsigargin. Levels of myeloperoxidase (MPO; primary granules), lactoferrin (specific granules) and matrix metalloproteinase-9 (MMP9; tertiary granules) release were similar between non-CF and CF neutrophils (Fig. 4A–C).
Fig. 4. ELD607 inhibits degranulation in non-CF and CF neutrophils. Neutrophil degranulation (A-C) was assayed by measuring the concentration of representative constituents of (A) primary granules, MPO (non-CF, n = 9; CF, n = 13); (B) secondary granules, lactoferrin (non-CF, n = 12; CF, n = 17) and (C) tertiary granules, MMP-9 (non-CF, n = 9; CF, n = 12). […]
Multiplex assay. […] Supernatant was collected and analyzed for a panel of neutrophil granule proteins (MPO, lactoferrin, MMP9) using a Bio-Plex human kit (BioRad) per the manufacturer’s protocol. Plates were then analyzed using a Bio-Plex MAGPIX System (BioRad).

[4] = system: neutrophil elastase; conditions: cited from earlier work
[5] = discussion summary of supplemental figure 3

VHDIVNMLIRG [ELD607]
sensitivity of SOCE to ELD607 ([1]; TKO + Orai2, thapsigargin, dose response, 7-9 replicates): relatively insensitive
specificity for Orai1: effect on Orai2 [1, 5]: little effect on Orai2 and Orai3
sensitivity of SOCE to ELD607 ([2]; TKO + Orai3, thapsigargin, dose response, 7-9 replicates): relatively insensitive
specificity for Orai1: effect on Orai3 [2, 5]: little effect on Orai2 and Orai3
MMP9 release (tertiary granules) ([3]; n = 9, 10 μM): significantly reduced
MPO release (primary granules) ([3]; n = 9, 10 μM): significantly reduced
lactoferrin release (specific/secondary granules) ([3]; n = 12, 10 μM): significantly reduced
stability in neutrophil elastase [4]: protease-resistant and stable in CF patient-derived neutrophil elastase
